This note sets out measurements from patent US11542254B2, “Methods and composition of 4-substituted benzoylpiperazine-1-substituted carbonyls as beta-catenin/B-cell lymphoma 9 inhibitors” (University of Utah Research Foundation, priority 2016, dated 2023).

What is called Ki is the equilibrium dissociation constant of an inhibitor or competing ligand from its target. High values mean lower affinity, low ones higher affinity.

Counter-ions that a name gives are not always drawn.

The assay addresses β-catenin/BCL9 PPI (Homo sapiens (Human), UniProt P35222). The assay is described as follows: AlphaScreen competitive inhibition assay, wild-type β-catenin/BCL9 PPI. The conditions noted are these: for Ki / AlphaScreen Ki relative to compound 2 (higher / worse): wild-type β-catenin/BCL9 PPI; for Ki: AlphaScreen competitive inhibition, mean ± SD (n=3); for AlphaScreen Ki relative to compound 2 (higher / worse): compared with compound 2. Format: binding. The procedure: Cells were cultured in LB medium with 30 μg/mL kanamycin until the OD600 was approximately 0.8, and then protein expression was induced with 400 μM of IPTG at 20° C. overnight. Cells were lysed by sonication. […] Native non-denaturing gel electrophoresis was performed to confirm the homogeneity of the purified proteins. Thermal-shift assay was performed on an iCycler iQ Real Time Detection System (Bio-Rad) to monitor protein stability and detect protein aggregation. Protein unfolding was evaluated through measuring the fluorescence changes of fluorescent dye Sypro Orange when interacting with wild-type or mutant β-catenin proteins. A temperature increment of 1°/min was applied. […] All spectra were recorded at room temperature, and the baseline control containing all of the substances except protein. Sample were prepared at a concentration around 1-5 μM in a buffer of 10 mM potassium phosphate and 100 mM potassium fluoride at pH 7.0 to ensure that the transmission of light through the sample was not restricted. […] Proteins were aliquoted and stored at −80° C.
25. Alphascreen Competitive Inhibition Assays Using Wild-Type and Mutant β-Catenin Proteins
(Bead proximity is the source of the signal in Alpha formats.)

β-catenin/BCL9 PPI, sequence (P35222 138-686): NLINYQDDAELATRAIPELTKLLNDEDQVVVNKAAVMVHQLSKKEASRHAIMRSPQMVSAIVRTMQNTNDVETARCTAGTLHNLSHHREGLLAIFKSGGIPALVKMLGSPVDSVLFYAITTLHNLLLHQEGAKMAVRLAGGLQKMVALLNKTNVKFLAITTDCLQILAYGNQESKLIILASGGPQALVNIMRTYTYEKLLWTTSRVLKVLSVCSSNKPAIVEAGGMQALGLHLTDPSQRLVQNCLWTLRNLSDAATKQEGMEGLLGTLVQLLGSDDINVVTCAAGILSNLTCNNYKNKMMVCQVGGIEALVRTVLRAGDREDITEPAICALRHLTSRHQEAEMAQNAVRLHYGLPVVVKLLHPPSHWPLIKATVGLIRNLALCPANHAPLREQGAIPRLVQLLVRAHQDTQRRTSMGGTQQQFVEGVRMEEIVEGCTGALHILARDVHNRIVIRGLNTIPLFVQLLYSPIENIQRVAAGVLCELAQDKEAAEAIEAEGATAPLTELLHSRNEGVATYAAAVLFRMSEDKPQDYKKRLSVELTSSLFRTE

Molecule `CC(C)C[C@H]1CN(C(=O)c2cc(F)cc(N3CCNCC3)c2)CCN1C(=O)c1ccc(O[C@H]2CCNC2)c(-c2ccc(F)cc2)c1` [Compound 68, 4-(3-Fluoro-5-((5)-4-(4′-fluoro-6-(((S)-pyrrolidin-1-ium-3-yl)oxy)-[1,1′-biphenyl]-3-carbonyl)-3-isobutylpiperazine-1-carbonyl)phenyl)piperazin-1-ium chloride] registered a Ki of 22 µM.
On the same count and under the same terms, with `Cc1cc(C(=O)N2CCN(C(=O)c3cc(F)cc(N4CCNCC4)c3)CC2)ccc1O[C@H]1CCNC1` [Compound 17, (S)-(4-(3-Fluoro-5-(piperazin-1-yl)benzoyl)piperazin-1-yl)(3-methyl-4-(pyrrolidin-3-yloxy)phenyl) methanone hydrochloride] the figure was 490 ± 150 µM; with `O=C(c1cc(F)cc(N2CCNCC2=O)c1)N1CCN(C(=O)c2ccc(O[C@H]3CCNC3)c(C3CCCCC3)c2)CC1` [Compound 75, (S)-1-(3-(4-(3-Cyclohexyl-4-(pyrrolidin-3-yloxy)benzoyl)piperazine-1-carbonyl)-5-fluorophenyl)piperazin-2-one hydrochloride], 39 ± 7 µM; with `NCCOc1ccc(C(N)=O)cc1-c1ccc(F)cc1` [Compound 1, 2-((5-carbamoyl-4′-fluoro-[1,1′-biphenyl]-2-yl)oxy)ethan-1-aminium chloride], 130 ± 6.9 µM.
The same measure, in the same setting: the same measure for `CC1(C)CCC(c2cc(C(=O)N3CCN(C(=O)c4cc(F)cc(N5CCNCC5)c4)CC3)ccc2O[C@H]2CCNC2)CC1` [Compound 15, (S)-(4-(3-(4,4-Dimethylcyclohexyl)-4-(pyrrolidin-3-yloxy)benzoyl)piperazin-1-yl) (3-fluoro-5-(piperazin-1-yl)phenyl) methanone hydrochloride]: 45 ± 6.7 µM.
The same measure, in the same setting: with `O=C(c1cc(F)cc(O[C@@H]2CCNC2)c1)N1CCN(C(=O)c2ccc(O[C@H]3CCNC3)c(-c3ccc(F)cc3)c2)CC1` [Compound 7, (4-(3-Fluoro-5-(((R)-pyrrolidin-3-yl)oxy)benzoyl)piperazin-1-yl) (4′-fluoro-6-(((S)-pyrrolidin-3-yl)oxy)-[1,1′-biphenyl]-3-yl) methanone hydrochloride] the figure was 35 ± 9.6 µM; with `O=C(c1cc(F)cc(N2CCNCC2)c1)N1CCN(C(=O)c2ccc(O[C@H]3CCNC3)c(C3CCC(F)(F)CC3)c2)CC1` [Compound 16, (S)-(4-(3-(4,4-Difluorocyclohexyl)-4-(pyrrolidin-3-yloxy)benzoyl)piperazin-1-yl)(3-fluoro-5-(piperazin-1-yl)phenyl)methanone hydrochloride], 53 ± 22 µM.
The molecule `O=C(c1cc(F)cc(C2CCNCC2)c1)N1CCN(C(=O)c2ccc(O[C@H]3CCNC3)c(-c3ccc(F)cc3)c2)CC1` [Compound 8, (S)-(4-(3-Fluoro-5-(piperidin-4-yl)benzoyl)piperazin-1-yl)(4′-fluoro-6-(pyrrolidin-3-yloxy)-[1,1′-biphenyl]-3-yl)methanone hydrochloride] gave a Ki of 20 ± 2.3 µM.
On the same count and under the same terms, the same measure for `NCCc1cc(F)cc(C(=O)N2CCN(C(=O)c3ccc(O[C@H]4CCNC4)c(-c4ccc(F)cc4)c3)CC2)c1` [Compound 5, (S)-(4-(3-(2-Aminoethyl)-5-fluorobenzoyl)piperazin-1-yl)(4′-fluoro-6-(pyrrolidin-3-yloxy)-[1,1′-biphenyl]-3-yl)methanone hydrochloride]: 67 ± 13 µM; for `O=C(c1cc(N2CCNCC2)cc(C(F)(F)F)c1)N1CCN(C(=O)c2ccc(O[C@H]3CCNC3)c(C3CCCCC3)c2)CC1` [Compound 20, (S)-(4-(3-Cyclohexyl-4-(pyrrolidin-3-yloxy)benzoyl)piperazin-1-yl) (3-(piperazin-1-yl)-5-(trifluoromethyl)phenyl) methanone hydrochloride]: 69 ± 8.7 µM; for `O=C(c1cc(F)cc(N2CCNCC2)c1)N1CCN(C(=O)c2ccc(O[C@H]3CCNC3)c(C3CCCC3)c2)CC1` [Compound 11, (S)-(4-(3-Cyclopentyl-4-(pyrrolidin-3-yloxy)benzoyl)piperazin-1-yl)(3-fluoro-5-(piperazin-1-yl)phenyl)methanone hydrochloride]: 37 ± 8 µM.
The same measure, in the same setting: with `Cc1cc(C(=O)N2CCN(C(=O)c3ccc(O[C@H]4CCNC4)c(C4CCCCC4)c3)CC2)cc(N2CCNCC2)c1` [Compound 19, (S)-(4-(3-Cyclohexyl-4-(pyrrolidin-3-yloxy)benzoyl)piperazin-1-yl) (3-methyl-5-(piperazin-1-yl)phenyl)methanone hydrochloride] the figure was 25 ± 1.7 µM; with `O=C(c1cc(Br)cc(N2CCNCC2)c1)N1CCN(C(=O)c2ccc(O[C@H]3CCNC3)c(C3CCCCC3)c2)CC1` [Compound 21, (S)-(4-(3-Bromo-5-(piperazin-1-yl)benzoyl)piperazin-1-yl)(3-cyclohexyl-4-(pyrrolidin-3-yloxy)phenyl)methanone hydrochloride], 55 ± 2.7 µM.
Take `C[C@H]1CN(C(=O)c2cc(F)cc(N3CCNCC3)c2)CCN1C(=O)c1ccc(O[C@H]2CCNC2)c(-c2ccc(F)cc2)c1` [Compound 62, 4-(3-Fluoro-5-((S)-4-(4′-fluoro-6-(((S)-pyrrolidin-1-ium-3-yl)oxy)-[1,1′-biphenyl]-3-carbonyl)-3-methylpiperazine-1-carbonyl)phenyl)piperazin-1-ium chloride]: the Ki came out at 110 ± 50 µM.
Same read-out and setting: with `O=C(c1cc(Cl)cc(N2CCNCC2)c1)N1CCN(C(=O)c2ccc(O[C@H]3CCNC3)c(C3CCCCC3)c2)CC1` [Compound 18, (S)-(4-(3-Chloro-5-(piperazin-l-yl)benzoyl)piperazin-1-yl)(3-cyclohexyl-4-(pyrrolidin-3-yloxy)phenyl)methanone hydrochloride] the figure was 76 ± 9.9 µM.
Take `Cl.Cl.NCCc1cc(F)cc(C(=O)N2CCN(C(=O)c3cnc(O[C@H]4CCNC4)c(-c4ccc(F)cc4)c3)CC2)c1` [Compound 4, (S)-(4-(3-(2-Aminoethyl)-5-fluorobenzoyl)piperazin-1-yl)(5-(4-fluorophenyl)-6-(pyrrolidin-3-yloxy)pyridin-3-yl)methanone hydrochloride]: the Ki is more than 500 µM. The “inhibition of β-catenin/BCL9 PPI at the highest concentration tested” value (500 μM, AlphaScreen) is “no obvious inhibition”.
`O=C(c1cc(F)cc(N2CCNCC2=O)c1)N1CCN(C(=O)c2ccc(O[C@H]3CCNC3)c(C3CCC(C(F)(F)F)CC3)c2)CC1` (stereo partly drawn) [Compound 76, (S)-1-(3-Fluoro-5-(4-(4-(pyrrolidin-3-yloxy)-3-(4-(trifluoromethyl)cyclohexyl)benzoyl)piperazine-1-carbonyl)phenyl)piperazin-2-one hydrochloride] came in with a Ki of 14 ± 3.6 µM.
Turning to `Cl.Cl.O=C(c1cc(F)cc(N2CCNCC2)c1)N1CCN(C(=O)c2cnc(O[C@H]3CCNC3)c(-c3ccc(F)cc3)c2)CC1` [Compound 3, (S)-(4-(3-Fluoro-5-(piperazin-1-yl)benzoyl)piperazin-1-yl)(5-(4-fluorophenyl)-6-(pyrrolidin-3-yloxy)pyridin-3-yl)methanone hydrochloride], the affinity corresponds to a Ki of 82 ± 12 µM and the “AlphaScreen Ki relative to compound 2 (higher / worse)” value was found to be 4 fold.
On the same counts, the results for `Cl.Cl.O=C(c1cc(F)cc(N2CCNCC2)c1)N1CCN(C(=O)c2ccc(O[C@H]3CCNC3)c(-c3ccc(F)c(F)c3)c2)CC1` [Compound 9, (S)-(4-(3′,4′-Difluoro-6-(pyrrolidin-3-yloxy)-[1,1′-biphenyl]-3-carbonyl)piperazin-1-yl)(3-fluoro-5-(piperazin-1-yl)phenyl) methanone hydrochloride] are 57 ± 33 µM and “approximately 3 fold”.
`CC[C@H]1CN(C(=O)c2cc(F)cc(N3CCNCC3)c2)CCN1C(=O)c1ccc(O[C@H]2CCNC2)c(-c2ccc(F)cc2)c1` [Compound 63, 4-(3-((S)-3-Ethyl-4-(4′-fluoro-6-(((S)-pyrrolidin-1-ium-3-yl)oxy)-[1,1′-biphenyl]-3-carbonyl)piperazine-1-carbonyl)-5-fluorophenyl)piperazin-1-ium chloride]: the Ki turned out to be 10 ± 10 µM.
Consider `O=C(c1cc(F)cc(O[C@H]2CCNC2)c1)N1CCN(C(=O)c2ccc(O[C@H]3CCNC3)c(-c3ccc(F)cc3)c2)CC1` [Compound 6, (4-(3-Fluoro-5-(((S)-pyrrolidin-3-yl)oxy)benzoyl)piperazin-1-yl) (4′-fluoro-6-(((S)-pyrrolidin-3-yl)oxy)-[1,1′-biphenyl]-3-yl) methanone hydrochloride], for which affinity was put at a Ki of 48 ± 11 µM.
Molecule `O=C(c1cc(F)cc(N2CCNCC2)c1)N1CCN(C(=O)c2ccc(O[C@H]3CCNC3)c(C3CCC(C(F)(F)F)CC3)c2)CC1` (stereo partly drawn) [Compound 13, (S)-(4-(3-Fluoro-5-(piperazin-1-yl)benzoyl)piperazin-1-yl)(4-(pyrrolidin-3-yloxy)-3-(4-(trifluoromethyl)cyclohexyl)phenyl)methanone hydrochloride] had a Ki of 170 ± 7.5 µM. This Ki lies about 3.5-fold higher than the previous one.
For the molecule `CC(C)[C@H]1CN(C(=O)c2cc(F)cc(N3CCNCC3)c2)CCN1C(=O)c1ccc(O[C@H]2CCNC2)c(-c2ccc(F)cc2)c1` [Compound 64, 4-(3-Fluoro-5-((5)-4-(4′-fluoro-6-(((S)-pyrrolidin-1-ium-3-yl)oxy)-[1,1′-biphenyl]-3-carbonyl)-3-isopropylpiperazine-1-carbonyl)phenyl)piperazin-1-ium chloride], the Ki is 45 µM.
